Measurements as given in ChEMBL document CHEMBL5137010, “N-Acetyl-Cysteinylated Streptophenazines from Streptomyces” (J Nat Prod, 2022).
Converted amounts (≈) assume the structure as drawn.

Legend:
Pseudomonas aeruginosa = assay: Antibacterial activity against Pseudomonas aeruginosa ATCC 27853 assessed as inhibition of bacterial growth at 10 hrs by plate reader analysis; type: functional
[1] = Cytotoxicity against human Caco-2 cells assessed as reduction in cell viability incubated for 24 hrs by alamar blue assay; type: toxicity, cell-based
Streptococcus pneumoniae = assay: Antibacterial activity against Streptococcus pneumoniae L44 assessed as inhibition of bacterial growth at 10 hrs by plate reader analysis; type: functional
[2] = Cytotoxicity against HEK293 cells assessed as reduction in cell viability incubated for 24 hrs by alamar blue assay; type: toxicity, cell-based; details: human
Enterococcus faecium = assay: Antibacterial activity against Enterococcus faecium L568 assessed as inhibition of bacterial growth at 10 hrs by plate reader analysis; type: functional
Staphylococcus aureus = assay: Antibacterial activity against Staphylococcus aureus L100 assessed as inhibition of bacterial growth at 10 hrs by plate reader analysis; type: functional
Escherichia coli = assay: Antibacterial activity against Escherichia coli L4242 harboring delta tolC mutant assessed as inhibition of bacterial growth at 10 hrs by plate reader analysis; type: functional
Micrococcus luteus = assay: Antibacterial activity against Micrococcus luteus L108 assessed as inhibition of bacterial growth at 10 hrs by plate reader analysis; type: functional

COC(=O)c1cccc2nc3c([C@@H](SC[C@H](NC(C)=O)C(=O)O)[C@@H](CCCCC(C)C)C(=O)OC)cccc3nc12
MIC (Pseudomonas aeruginosa): 428 µM (≈ 250 µg/mL)
IC50 at 24 h [1]: 154 µM
MIC (Streptococcus pneumoniae): 12 µM (≈ 7 µg/mL)
IC50 at 24 h [2]: > 220 µM
MIC (Enterococcus faecium): 428 µM (≈ 250 µg/mL)
MIC (Staphylococcus aureus): 43 µM (≈ 25.1 µg/mL)
MIC (Escherichia coli): 291 µM (≈ 170 µg/mL)
MIC (Micrococcus luteus): 68 µM (≈ 39.7 µg/mL)
